Measured values taken from PMC12621043, “Un-LOK-ing a New Approach for Conformational Selective Targeting of STK10 (LOK)” (ACS Medicinal Chemistry Letters, 2025).

Tests used:
GPRK5A = target: T1, GPRK5A (Homo sapiens, UniProt P34947); experiment: DSF Tm panel; type: binding; settings: 10 μM compound
T1 construct: purchased in-house DSF kinase panel (SGC-style construct names; the trailing letter is the construct ID)

PIM1 (PIM1A) = target: T2, PIM1 (PIM1A) (Homo sapiens, UniProt P11309); experiment: DSF Tm panel; type: binding; settings: 10 μM compound
T2 construct: purchased in-house DSF kinase panel (SGC-style construct names; the trailing letter is the construct ID)
T2 sequence (P11309 whole entry): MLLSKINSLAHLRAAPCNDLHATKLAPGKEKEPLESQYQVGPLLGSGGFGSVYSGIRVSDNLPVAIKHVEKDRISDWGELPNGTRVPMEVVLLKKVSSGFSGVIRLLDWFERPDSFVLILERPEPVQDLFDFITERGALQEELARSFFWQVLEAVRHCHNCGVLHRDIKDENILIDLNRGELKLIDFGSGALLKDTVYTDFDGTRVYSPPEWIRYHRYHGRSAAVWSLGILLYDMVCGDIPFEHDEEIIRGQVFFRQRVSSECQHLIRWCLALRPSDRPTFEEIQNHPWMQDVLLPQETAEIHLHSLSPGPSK

STK39A = target: T3, STK39A (Homo sapiens, UniProt Q9UEW8); experiment: DSF Tm panel; type: binding; settings: 10 μM compound
T3 construct: purchased in-house DSF kinase panel (SGC-style construct names; the trailing letter is the construct ID)

SLK = SLK (Homo sapiens, UniProt Q9H2G2); experiment: DSF Tm panel; type: binding; parameters: purchased in-house DSF kinase panel (SGC-style construct names; the trailing letter is the construct ID); settings: 10 μM compound
DAPK1 (DAPK1A) = target: T4, DAPK1 (DAPK1A) (Homo sapiens, UniProt P53355); experiment: DSF Tm panel; type: binding; settings: 10 μM compound
T4 construct: purchased in-house DSF kinase panel (SGC-style construct names; the trailing letter is the construct ID)
T4 sequence (P53355 1-285): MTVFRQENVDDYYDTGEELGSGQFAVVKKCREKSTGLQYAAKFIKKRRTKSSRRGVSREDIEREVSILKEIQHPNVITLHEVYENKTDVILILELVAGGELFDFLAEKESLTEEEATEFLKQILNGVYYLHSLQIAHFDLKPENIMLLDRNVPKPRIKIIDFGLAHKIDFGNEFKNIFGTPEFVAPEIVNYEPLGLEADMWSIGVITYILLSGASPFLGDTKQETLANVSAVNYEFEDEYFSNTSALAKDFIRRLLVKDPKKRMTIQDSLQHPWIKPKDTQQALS

OSR1A = target: T5, OSR1A (Homo sapiens, UniProt O95747); experiment: DSF Tm panel; type: binding; settings: 10 μM compound
T5 construct: purchased in-house DSF kinase panel (SGC-style construct names; the trailing letter is the construct ID)
T5 sequence (O95747 17-291): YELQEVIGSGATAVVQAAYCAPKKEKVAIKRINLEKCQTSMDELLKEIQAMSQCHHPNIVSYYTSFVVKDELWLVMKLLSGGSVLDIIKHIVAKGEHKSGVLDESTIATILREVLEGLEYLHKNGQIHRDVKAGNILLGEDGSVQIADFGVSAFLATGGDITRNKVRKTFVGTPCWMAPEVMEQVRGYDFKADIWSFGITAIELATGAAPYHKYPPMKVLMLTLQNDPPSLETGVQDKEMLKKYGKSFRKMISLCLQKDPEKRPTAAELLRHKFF

MAPK14A = target: T6, MAPK14A (Homo sapiens, UniProt Q16539); experiment: DSF Tm panel; type: binding; settings: 10 μM compound
T6 construct: purchased in-house DSF kinase panel (SGC-style construct names; the trailing letter is the construct ID)
T6 sequence (Q16539 whole entry): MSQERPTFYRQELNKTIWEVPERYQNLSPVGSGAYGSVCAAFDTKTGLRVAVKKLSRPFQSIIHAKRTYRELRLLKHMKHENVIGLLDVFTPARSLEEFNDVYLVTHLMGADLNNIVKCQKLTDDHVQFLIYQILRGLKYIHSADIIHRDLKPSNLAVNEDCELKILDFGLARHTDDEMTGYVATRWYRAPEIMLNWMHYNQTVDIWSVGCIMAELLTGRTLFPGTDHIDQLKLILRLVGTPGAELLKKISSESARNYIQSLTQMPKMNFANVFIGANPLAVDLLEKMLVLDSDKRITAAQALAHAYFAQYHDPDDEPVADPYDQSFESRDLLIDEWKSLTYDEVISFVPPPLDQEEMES

FESA = target: T7, FESA (Homo sapiens, UniProt P07332); experiment: DSF Tm panel; type: binding; settings: 10 μM compound
T7 construct: purchased in-house DSF kinase panel (SGC-style construct names; the trailing letter is the construct ID)
T7 sequence (P07332 whole entry): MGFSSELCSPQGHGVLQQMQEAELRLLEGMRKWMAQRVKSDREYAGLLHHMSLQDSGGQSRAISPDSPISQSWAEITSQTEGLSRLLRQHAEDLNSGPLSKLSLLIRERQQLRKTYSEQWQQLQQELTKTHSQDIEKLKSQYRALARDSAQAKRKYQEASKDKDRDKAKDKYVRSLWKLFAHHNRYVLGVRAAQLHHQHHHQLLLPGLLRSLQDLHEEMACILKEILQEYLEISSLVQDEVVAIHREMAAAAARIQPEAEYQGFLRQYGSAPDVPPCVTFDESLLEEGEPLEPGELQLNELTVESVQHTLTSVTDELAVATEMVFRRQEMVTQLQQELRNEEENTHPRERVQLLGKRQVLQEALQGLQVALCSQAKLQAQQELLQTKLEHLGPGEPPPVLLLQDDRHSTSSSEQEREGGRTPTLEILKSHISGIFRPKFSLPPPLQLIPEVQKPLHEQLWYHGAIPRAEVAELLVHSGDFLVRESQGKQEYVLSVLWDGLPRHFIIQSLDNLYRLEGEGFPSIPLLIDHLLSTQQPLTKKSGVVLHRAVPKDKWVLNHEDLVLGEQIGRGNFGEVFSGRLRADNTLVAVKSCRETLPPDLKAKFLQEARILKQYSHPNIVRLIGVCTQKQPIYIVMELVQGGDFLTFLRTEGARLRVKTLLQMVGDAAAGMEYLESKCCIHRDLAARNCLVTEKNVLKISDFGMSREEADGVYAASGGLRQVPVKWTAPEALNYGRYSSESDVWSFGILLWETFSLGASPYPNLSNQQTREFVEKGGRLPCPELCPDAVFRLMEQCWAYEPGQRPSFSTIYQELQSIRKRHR

BRAFA = target: T8, BRAFA (Homo sapiens, UniProt P15056); experiment: DSF Tm panel; type: binding; settings: 10 μM compound
T8 construct: purchased in-house DSF kinase panel (SGC-style construct names; the trailing letter is the construct ID)
T8 sequence (P15056 448-723): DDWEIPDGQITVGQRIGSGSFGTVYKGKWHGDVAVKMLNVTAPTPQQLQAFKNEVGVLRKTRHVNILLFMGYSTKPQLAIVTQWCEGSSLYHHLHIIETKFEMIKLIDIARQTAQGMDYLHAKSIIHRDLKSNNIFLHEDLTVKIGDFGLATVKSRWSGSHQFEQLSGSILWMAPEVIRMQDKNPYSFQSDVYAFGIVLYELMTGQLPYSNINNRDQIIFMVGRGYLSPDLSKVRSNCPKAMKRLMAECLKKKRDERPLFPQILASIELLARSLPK

MAPK1A = target: T9, MAPK1A (Homo sapiens, UniProt P28482); experiment: DSF Tm panel; type: binding; settings: 10 μM compound
T9 construct: purchased in-house DSF kinase panel (SGC-style construct names; the trailing letter is the construct ID)
T9 sequence (P28482 whole entry): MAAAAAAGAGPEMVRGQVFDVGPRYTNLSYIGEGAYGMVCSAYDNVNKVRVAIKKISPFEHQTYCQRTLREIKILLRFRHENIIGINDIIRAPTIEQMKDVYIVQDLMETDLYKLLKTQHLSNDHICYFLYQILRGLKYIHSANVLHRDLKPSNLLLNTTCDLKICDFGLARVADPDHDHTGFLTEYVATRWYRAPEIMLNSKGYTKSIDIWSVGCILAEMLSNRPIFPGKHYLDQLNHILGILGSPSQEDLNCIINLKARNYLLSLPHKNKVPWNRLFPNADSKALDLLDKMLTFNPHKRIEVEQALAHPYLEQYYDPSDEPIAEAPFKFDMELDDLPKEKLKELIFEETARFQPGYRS

MARK4A = target: T10, MARK4A (Homo sapiens, UniProt Q96L34); experiment: DSF Tm panel; type: binding; settings: 10 μM compound
T10 construct: purchased in-house DSF kinase panel (SGC-style construct names; the trailing letter is the construct ID)
T10 sequence (Q96L34 59-310): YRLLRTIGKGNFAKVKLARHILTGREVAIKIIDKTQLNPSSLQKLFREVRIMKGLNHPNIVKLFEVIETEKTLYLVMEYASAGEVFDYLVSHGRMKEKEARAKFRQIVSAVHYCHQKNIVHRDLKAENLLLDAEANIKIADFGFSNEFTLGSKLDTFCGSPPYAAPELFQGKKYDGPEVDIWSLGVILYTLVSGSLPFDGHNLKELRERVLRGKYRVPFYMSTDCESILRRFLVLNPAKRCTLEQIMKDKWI

MAPK9A = target: T11, MAPK9A (Homo sapiens, UniProt P45984); experiment: DSF Tm panel; type: binding; settings: 10 μM compound
T11 construct: purchased in-house DSF kinase panel (SGC-style construct names; the trailing letter is the construct ID)
T11 sequence (P45984 7-364): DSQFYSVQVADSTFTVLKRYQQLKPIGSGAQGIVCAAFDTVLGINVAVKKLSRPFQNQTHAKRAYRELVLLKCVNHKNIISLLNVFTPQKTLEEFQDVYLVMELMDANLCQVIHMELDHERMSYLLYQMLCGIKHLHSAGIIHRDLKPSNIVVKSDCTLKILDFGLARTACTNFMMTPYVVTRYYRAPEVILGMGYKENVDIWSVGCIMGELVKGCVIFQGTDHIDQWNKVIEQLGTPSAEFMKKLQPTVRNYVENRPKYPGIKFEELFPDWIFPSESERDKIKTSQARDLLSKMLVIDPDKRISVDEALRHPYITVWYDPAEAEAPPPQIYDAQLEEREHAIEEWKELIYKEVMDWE

FGFR2A = target: T12, FGFR2A (Homo sapiens, UniProt P21802); experiment: DSF Tm panel; type: binding; settings: 10 μM compound
T12 construct: purchased in-house DSF kinase panel (SGC-style construct names; the trailing letter is the construct ID)
T12 sequence (P21802 458-770): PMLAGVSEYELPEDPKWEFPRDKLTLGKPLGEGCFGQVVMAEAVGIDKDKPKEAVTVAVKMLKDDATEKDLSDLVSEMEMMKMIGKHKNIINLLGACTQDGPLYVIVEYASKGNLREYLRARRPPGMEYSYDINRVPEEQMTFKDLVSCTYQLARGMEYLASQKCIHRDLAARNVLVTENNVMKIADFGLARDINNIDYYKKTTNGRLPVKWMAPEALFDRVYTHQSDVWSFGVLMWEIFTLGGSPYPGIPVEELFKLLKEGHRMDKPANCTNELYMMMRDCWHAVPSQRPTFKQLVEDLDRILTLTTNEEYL

MAP2K6A = target: T13, MAP2K6A (Homo sapiens, UniProt P52564); experiment: DSF Tm panel; type: binding; settings: 10 μM compound
T13 construct: purchased in-house DSF kinase panel (SGC-style construct names; the trailing letter is the construct ID)
T13 sequence (P52564 53-314): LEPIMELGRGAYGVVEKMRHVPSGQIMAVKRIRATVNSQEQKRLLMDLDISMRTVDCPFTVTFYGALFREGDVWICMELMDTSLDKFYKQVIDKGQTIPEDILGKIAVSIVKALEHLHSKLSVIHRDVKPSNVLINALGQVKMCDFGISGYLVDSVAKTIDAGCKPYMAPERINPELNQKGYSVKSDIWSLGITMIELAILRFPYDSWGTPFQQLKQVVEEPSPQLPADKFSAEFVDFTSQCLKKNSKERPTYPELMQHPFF

GSG2A = target: T14, GSG2A (Homo sapiens, UniProt Q8TF76); experiment: DSF Tm panel; type: binding; settings: 10 μM compound
T14 construct: purchased in-house DSF kinase panel (SGC-style construct names; the trailing letter is the construct ID)
T14 sequence (Q8TF76 465-798): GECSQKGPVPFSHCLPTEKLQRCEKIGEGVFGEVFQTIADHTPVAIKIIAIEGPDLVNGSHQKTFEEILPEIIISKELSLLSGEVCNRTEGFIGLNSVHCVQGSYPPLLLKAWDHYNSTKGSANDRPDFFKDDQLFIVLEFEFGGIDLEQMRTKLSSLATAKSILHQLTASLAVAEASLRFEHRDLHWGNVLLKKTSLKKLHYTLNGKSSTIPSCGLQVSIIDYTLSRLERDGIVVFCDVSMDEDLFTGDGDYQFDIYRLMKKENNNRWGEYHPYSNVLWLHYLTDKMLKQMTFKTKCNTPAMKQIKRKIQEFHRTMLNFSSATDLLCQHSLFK

MAPK13A = target: T15, MAPK13A (Homo sapiens, UniProt O15264); experiment: DSF Tm panel; type: binding; settings: 10 μM compound
T15 construct: purchased in-house DSF kinase panel (SGC-style construct names; the trailing letter is the construct ID)
T15 sequence (O15264 1-365): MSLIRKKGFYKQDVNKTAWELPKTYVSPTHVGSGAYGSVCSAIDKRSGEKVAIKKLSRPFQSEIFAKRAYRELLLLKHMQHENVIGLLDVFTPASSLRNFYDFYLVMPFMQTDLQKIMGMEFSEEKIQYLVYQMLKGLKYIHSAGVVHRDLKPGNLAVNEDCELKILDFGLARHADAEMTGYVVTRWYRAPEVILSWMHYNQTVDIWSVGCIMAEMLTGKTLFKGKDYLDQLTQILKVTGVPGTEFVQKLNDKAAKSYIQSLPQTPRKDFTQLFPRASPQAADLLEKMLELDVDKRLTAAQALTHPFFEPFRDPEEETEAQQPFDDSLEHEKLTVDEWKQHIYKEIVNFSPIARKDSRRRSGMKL

CDK2A = target: T16, CDK2A (Homo sapiens, UniProt P24941); experiment: DSF Tm panel; type: binding; settings: 10 μM compound
T16 construct: purchased in-house DSF kinase panel (SGC-style construct names; the trailing letter is the construct ID)

DCAMKL1A = target: T17, DCAMKL1A (Homo sapiens, UniProt O15075); experiment: DSF Tm panel; type: binding; settings: 10 μM compound
T17 construct: purchased in-house DSF kinase panel (SGC-style construct names; the trailing letter is the construct ID)
T17 sequence (O15075 372-649): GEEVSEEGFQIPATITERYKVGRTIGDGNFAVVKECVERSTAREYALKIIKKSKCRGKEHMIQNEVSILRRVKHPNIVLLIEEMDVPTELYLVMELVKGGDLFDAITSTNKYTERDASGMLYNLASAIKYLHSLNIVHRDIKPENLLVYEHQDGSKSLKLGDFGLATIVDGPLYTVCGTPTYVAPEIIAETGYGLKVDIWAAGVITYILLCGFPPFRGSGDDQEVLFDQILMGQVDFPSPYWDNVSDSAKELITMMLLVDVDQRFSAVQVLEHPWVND

CASKA = target: T18, CASKA (Homo sapiens, UniProt O14936); experiment: DSF Tm panel; type: binding; settings: 10 μM compound
T18 construct: purchased in-house DSF kinase panel (SGC-style construct names; the trailing letter is the construct ID)
T18 sequence (O14936 12-276): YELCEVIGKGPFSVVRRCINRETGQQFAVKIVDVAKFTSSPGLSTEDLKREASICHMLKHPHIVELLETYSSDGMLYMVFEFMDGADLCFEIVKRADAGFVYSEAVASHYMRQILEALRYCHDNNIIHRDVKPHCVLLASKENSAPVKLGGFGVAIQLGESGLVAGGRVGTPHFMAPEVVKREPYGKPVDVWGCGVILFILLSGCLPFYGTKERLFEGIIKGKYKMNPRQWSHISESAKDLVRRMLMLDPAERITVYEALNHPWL

STK10 = target: T19, STK10 (Homo sapiens, UniProt O94804); experiment: PhosphoSens in vitro activity assay; type: biochemical; settings: ATP 160 μM
T19 construct: purchased in-house DSF kinase panel (SGC-style construct names; the trailing letter is the construct ID)
T19 sequence (O94804 18-317 limits assumed): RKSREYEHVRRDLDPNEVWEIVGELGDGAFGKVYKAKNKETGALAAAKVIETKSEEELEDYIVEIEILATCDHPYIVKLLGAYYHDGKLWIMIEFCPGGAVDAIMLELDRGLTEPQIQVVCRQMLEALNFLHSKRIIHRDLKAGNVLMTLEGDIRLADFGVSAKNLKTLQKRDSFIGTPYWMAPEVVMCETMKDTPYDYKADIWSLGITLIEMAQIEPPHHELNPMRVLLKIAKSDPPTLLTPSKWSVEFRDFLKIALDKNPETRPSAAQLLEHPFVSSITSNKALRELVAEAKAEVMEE

T1 sequence (P34947 186-514): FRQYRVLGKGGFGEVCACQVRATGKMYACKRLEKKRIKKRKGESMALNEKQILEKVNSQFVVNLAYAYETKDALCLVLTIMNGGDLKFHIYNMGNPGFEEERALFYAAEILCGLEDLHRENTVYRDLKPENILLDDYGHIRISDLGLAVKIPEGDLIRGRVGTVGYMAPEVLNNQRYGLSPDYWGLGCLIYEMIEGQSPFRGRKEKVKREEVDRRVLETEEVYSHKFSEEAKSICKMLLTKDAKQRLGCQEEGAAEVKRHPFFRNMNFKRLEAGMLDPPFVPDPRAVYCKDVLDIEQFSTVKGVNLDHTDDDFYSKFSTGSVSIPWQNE

| Compound | ΔTm at 10 µM (GPRK5A) | ΔTm at 10 µM (PIM1 (PIM1A)) | ΔTm at 10 µM (STK39A) | ΔTm at 10 µM (SLK) | ΔTm at 10 µM (DAPK1 (DAPK1A)) | ΔTm at 10 µM (OSR1A) | ΔTm at 10 µM (MAPK14A) | ΔTm at 10 µM (FESA) | ΔTm at 10 µM (BRAFA) | ΔTm at 10 µM (MAPK1A) | ΔTm at 10 µM (MARK4A) | ΔTm at 10 µM (MAPK9A) | ΔTm at 10 µM (FGFR2A) | ΔTm at 10 µM (MAP2K6A) | ΔTm at 10 µM (GSG2A) | ΔTm at 10 µM (MAPK13A) | ΔTm at 10 µM (CDK2A) | ΔTm at 10 µM (DCAMKL1A) | ΔTm at 10 µM (CASKA) | IC50 (STK10) |
| --- | --- | --- | --- | --- | --- | --- | --- | --- | --- | --- | --- | --- | --- | --- | --- | --- | --- | --- | --- | --- |
| O=C(NCc1ccc(C(F)(F)F)cc1)Nc1ccc2cc1OCCOCCNc1ccn3ncc-2c3n1 [compound 28] | 0.7 °C | 1 °C | 1.3 °C | 3.1 °C | 0.4 °C | 2.2 °C | 3.1 °C | 1 °C | 0 °C | 0.9 °C | 2.7 °C | -0.2 °C | 2.3 °C | 1.1 °C | 0.9 °C | -0.5 °C | 3.3 °C | 2.7 °C | 0.5 °C | 5 ± 0.61 µM |
| COc1ccccc1CNC(=O)Nc1ccc2cc1OCCOCCNc1ccn3ncc-2c3n1 [compound 29] | 0.4 °C | 1 °C | 0.8 °C | 2.5 °C | -0.1 °C | 0.9 °C | 0.9 °C | 2 °C | -0.4 °C | 0.7 °C | 1.9 °C | -2.1 °C | 2.9 °C | 0.7 °C | 0.6 °C | 0.02 °C | 1.7 °C | 0.9 °C | 1.1 °C | 5.2 ± 0.81 µM |
| COc1cccc(CNC(=O)Nc2ccc3cc2OCCOCCNc2ccn4ncc-3c4n2)c1 [compound 30] | 0.5 °C | 1 °C | 1.2 °C | 2.1 °C | 0.1 °C | 1.2 °C | 0.9 °C | 1.4 °C | -0.2 °C | 0.6 °C | 1.5 °C | -1.9 °C | 3.1 °C | 0.9 °C | 0.7 °C | -0.1 °C | 2.5 °C | 1.2 °C | 0.9 °C | 6.29 ± 1.49 µM |
| COc1ccc(CNC(=O)Nc2ccc3cc2OCCOCCNc2ccn4ncc-3c4n2)cc1F [compound 32] | 0.7 °C | 1.7 °C | 1.4 °C | 3.6 °C | 0.4 °C | 1.7 °C | 2.4 °C | 0.8 °C | -0.2 °C | 0.7 °C | 2.5 °C | -0.6 °C | 2.8 °C | 1 °C | 1 °C | -0.3 °C | 3.4 °C | 1.6 °C | 1.7 °C | 3.33 ± 0.66 µM |
| COc1cc(CNC(=O)Nc2ccc3cc2OCCOCCNc2ccn4ncc-3c4n2)ccc1F [compound 33] | 2.2 °C | 1.6 °C | 1.2 °C | 2.4 °C | 0.5 °C | 1.5 °C | 1.4 °C | 0.5 °C | -0.6 °C | 1.6 °C | 2.2 °C | -1.2 °C | 3.7 °C | 1.1 °C | 2.8 °C | -0.3 °C | 2.7 °C | 2.2 °C | 0.9 °C | 2.34 ± 0.79 µM |
| C[C@H](NC(=O)Nc1ccc2cc1OCCOCCNc1ccn3ncc-2c3n1)c1ccccc1 [compound 34] | 0.2 °C | 0.6 °C | 1 °C | 1.6 °C | 0.5 °C | 1.2 °C | 1.3 °C | 1.3 °C | -0.5 °C | 0.7 °C | 0.9 °C | -2 °C | 2.8 °C | 0.8 °C | 0.1 °C | -0.3 °C | 1 °C | 1.9 °C | 1 °C | 10.2 µM |
